Data from patent US20040220277A1, “Enantiomeric amphetamine compositions” (priority 2003, published 2004).

Experiments:
[1] = test system: noradrenaline (NA) release, frontal cortex; assay: Basal release of tritiated noradrenaline from rat brain slices in vitro (Brandel system); type: cell-based
Protocol: The DA and NA release is measured in separate brain areas, i.e., in striatum for DA release (evaluating tritiated dopamine) and in the frontal cortex for NA release (evaluating tritiated noradrenaline), using a Brandel system. The brain slices are loaded with the tritiated monoamine (dopamine or noradrenaline) and then superfused to produce basal neurotransmitter release. The slices are also subjected to 2 short periods of electrical stimulation to effect stimulated transmitter release.

[2] = test system: spontaneously hypertensive rat (SHR); assay: Behavioural study, multiple Random-Interval/Extinction operant schedule in the SHR model of ADHD; type: in vivo; settings: for General activity level (total number of lever presses), overactivity / Impulsiveness (number of responses with short IRTs): d 0.5-1.5 mg/kg, l 1.0-3.0 mg/kg i.p.; for Sustained attention following transformation: transformed data, saline as baseline, FIG. 6
Text: (§1) Subjects: A total number of 32 male rats, 16 spontaneously hypertensive (SHR) and 16 Wistar/Kyoto (WKY), participated in final part of this study. (Initially, 8 extra rats, 6 SHRs and 2 controls, were trained with a view to select two groups of 16 with the greatest difference in baseline measures. However, there was little difference when comparing all the rats with a selected subgroup—they both separated well.) At the start of testing, the rats were ˜5 wk old and experimentally naive. Young rats were required, as ADHD primarily is a child and adolescent disorder. The SHRs were obtained from Charles River Italy (SHR/Cr1 Ico) and the WKYs from Charles River France (WKY/Nico) as other breeding centers were unable to deliver rats at the time we needed them. At the University of Oslo, the rats were housed individually in 41×25×25 (height) cm transparent cages and had free access to food (BK Standard RM 1 from Beekay Feeds Universal Ltd.).
(§2) The rats had access to water at all times during the habituation period. However, after completing the habituation period, the rats were deprived of water for 21 hr a day. The rats received water as reinforcers during the experimental session and had free access to water for 90 min after the experimental session. The temperature in the housing area was ˜20° C. The light in the housing area was on from 0700 to 1900 hours. The behavioral training took place between 0900 and 1230 hours seven days a week.
(§3) Behavioral apparatus: Sixteen Campden Instruments operant chambers were used in the study. The animal working space in eight of the chambers is 25×25×30 (height) cm and 25×25×20 (height) cm in the other eight chambers. The 2.8-W house light and a fan producing a low masking noise were on during the entire experimental session.
(§4) During training sessions, either one or two retractable levers were used. A 2.8-W cue light was located above each lever. The rats' response consisted of pressing one of the levers with a dead weight of at least 3 g to activate a microswitch. The reinforcers (0.01 ml tap water) were delivered by a liquid dipper located in a small recessed cubicle with a 2.8-W cue light lit when a reinforcer is presented. A 7×5 cm transparent plastic lid separated the cubicle from the rat's working space. The rat could easily open the lid with a light push with the nose or paw. Each chamber was ventilated and placed in a sound-resistant outer housing. A computer and an online system (SPIDER, Paul Fray, Ltd., UK) recorded the behavior and scheduled reinforcers (drops of water).
Before the initiation of the study, the rats were randomized and balanced into two groups. Each group of rats consisted of an equal number of SHRs and WKYs. Each rat was assigned to a specific chamber, which it occupied during all sessions. The rat was returned to its living cage after each session. All animals were run seven days a week.
Response acquisition: The training period started with a single 30-min habituation session. During the habituation session, the lid between the working space and the reinforcement cubicle was kept open. No lever was present and no cue light above any lever was lit. The house light was on. From this time on the rats were deprived of water for 21 hr a day; this is a moderate, but sufficient deprivation for motivating the animal.
The habituation session was followed by two 30-min magazine training sessions. The lid was taped open, no levers were present, and the house light was on, but the cue lights above the levers were not lit. The computer delivered water on the average every 10s independent of the rat's behavior (a variable-time schedule).
In the next two sessions, the rat was trained to open the lid to gain access to the water. The lid was not taped open, no levers were present and the lights above the levers were not activated. The house light was on. Each lid opening was followed by a presentation of a single drop of water. […]

Wistar Kyoto Rat (WKY) = assay: Behavioural study, multiple Random-Interval/Extinction operant schedule in WKY controls; type: in vivo; settings: single isomers; for General activity level: FIG. 3; for Impulsiveness: FIG. 4
Text: as §1, §2, §3, §4
Before the initiation of the study, the rats were randomized and balanced into two groups. Each group of rats consisted of an equal number of SHRs and WKYs. Each rat was assigned to a specific chamber, which it occupied during all sessions. […]

Rats = assay: Weight gain, food and water intake in rats with 3 hours per day access; type: in vivo, rat; settings: for Body weight gain: once a day dosing, measured every day; for Water intake: once a day, one hour before 3 h access to food and water; for Food intake: over the 3 hours of access each day, 10 day period
Protocol: Rats were given access to food and water for 3 hours per day. The acclimation period was 10 days. Thereafter, vehicle or doses of l- or d-amphetamine sulphate were administered to the rats once a day one hour before access to food and water. Body weight was measured every day (FIG. 11) before the drug administration and then food intake (FIG. 12) and water intake were measured over the 3 hours each day when the rats had access to the same.

Rj: Wistar (Han) rats = assay: EEG sleep-wake cycle in conscious freely-moving rats; type: in vivo, rat
Protocol: They were supplied by Elevage Janvier, 53940 Le Genest-Saint-Isle, France.
Implanted animals were individually placed in transparent perspex boxes in a soundproof, light-controlled, ventilated cabin and were habituated to the recording environment for at least 10 days. Drug-free baseline EEG was recorded for 23 hours. Then the rats were administered vehicle and the EEG recorded for another 23 hours. The next day, rats were treated with one of the 4 amphetamine forms first at the dose of 3 mg/kg, than at the dose of 1 mg/kg. The following variables were measured: latency to the appearance of stable slow-wave sleep (SWS), latency to the first appearance of rapid-eye-movement sleep (REM), the number of REM sleep phases, and the distribution percentage of wake/SWS/REM (sleep architecture).
Test sessions following treatment were individually compared with corresponding control sessions. As no differences were apparent after vehicle, the 2 control sessions with and without vehicle, were averaged.

[3] = between 4 and 8 h after administration, 3 mg/kg

SMILES	Potency in releasing NA from cortex compared with DA from striatum [1]	Sustained attention, performance versus saline ([2]; 2 mg/kg, T-test with dependent samples, p <0.01)	General activity level (total number of lever presses), overactivity ([2]; FIG. 3)	Impulsiveness (number of responses with short IRTs) ([2]; FIG. 4)	Sustained attention (percentage of correct lever choices) ([2]; low doses, untransformed, FIG. 5)	Sustained attention following transformation [2]	General activity level (Wistar Kyoto Rat (WKY))	Impulsiveness (Wistar Kyoto Rat (WKY))	Body weight gain (Rats)	Water intake (Rats)	Food intake (Rats)	REM sleep (Rj: Wistar (Han) rats; between 4 and 8 h after administration, 1 mg/kg)	General activity level (total number of lever presses), overactivity ([2]; FIG. 3, listed as D-amphetamine)	Impulsiveness (number of responses with short IRTs) ([2]; FIG. 4, listed as D-amphetamine)	Delay to onset of REM sleep compared with the other dose (Rj: Wistar (Han) rats; 3 mg/kg)	Effects on SWS and wake compared with the l-isomer (Rj: Wistar (Han) rats; 3 mg/kg, first 4 h of recording)	SWS (Rj: Wistar (Han) rats; [3])	Waking (Rj: Wistar (Han) rats; [3])	Duration of effects on the sleep-wake cycle (Rj: Wistar (Han) rats; rat, in vivo)	Overall potency on the sleep-wake cycle (Rj: Wistar (Han) rats; rat, in vivo)
C[C@@H](N)Cc1ccccc1 [l-amphetamine]	considerably more potent at releasing NA from cortex than DA from striatum	performed better	reduced	less efficient than d-amphetamine	improved sustained attention more markedly than low doses of d-amphetamine	significant improvement	unaffected	unaffected	dose-related reductions	little effect	decreased food intake over the first 1-2 days only	–	–	–	–	–	–	–	–	–
CC(N)Cc1ccccc1.NC(CC(=O)O)C(=O)O (racemic) [dl-amphetamine aspartate]	–	–	–	–	–	–	–	–	–	–	–	reduced	–	–	–	–	–	–	–	–
C[C@H](N)Cc1ccccc1 [d-amphetamine]	–	–	reduced	reduced	–	disappeared	unaffected	unaffected	dose-related reductions	little effect	decreased food intake over the measured 10 day period	–	more than l-amphetamine	more than l-amphetamine	tended to be longer	significantly greater than the l-isomer	reduced	increased	longer lasting	more potent than l-amphetamine
